Measurements as given in patent US20140163026A1, “8-ETHYL-6-(ARYL)PYRIDO[2,3-D]PYRIMIDIN-7(8H)-ONES FOR THE TREATMENT OF NERVOUS SYSTEM DISORDERS AND CANCER” (Afraxis Holdings, Inc., priority 2011, published 2014).

Tests used:
Format in all cases: biochemical
[1] = molecular target: PAK1 (Homo sapiens, UniProt Q13153); experiment: In vitro PAK inhibition assay (SelectScreen, Ser/Thr 19 peptide)
Summary of the method: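 Ten-point, 3-fold compound series at 1% final DMSO were incubated with enzyme, Ser/Thr 19 peptide and ATP for 60 min at room temperature. Buffer was HEPES pH 7.5 (50 mM) with 10 mM MgCl2, 1 mM EGTA, 0.01% BRIJ-35. A 60 min development step preceded the fluorescence read converted to % phosphorylation.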

[2] = molecular target: PAK3 (Homo sapiens, UniProt O75914); experiment: In vitro PAK inhibition assay (SelectScreen, Ser/Thr 20 peptide)
Sequence of PAK3 (O75914 whole entry): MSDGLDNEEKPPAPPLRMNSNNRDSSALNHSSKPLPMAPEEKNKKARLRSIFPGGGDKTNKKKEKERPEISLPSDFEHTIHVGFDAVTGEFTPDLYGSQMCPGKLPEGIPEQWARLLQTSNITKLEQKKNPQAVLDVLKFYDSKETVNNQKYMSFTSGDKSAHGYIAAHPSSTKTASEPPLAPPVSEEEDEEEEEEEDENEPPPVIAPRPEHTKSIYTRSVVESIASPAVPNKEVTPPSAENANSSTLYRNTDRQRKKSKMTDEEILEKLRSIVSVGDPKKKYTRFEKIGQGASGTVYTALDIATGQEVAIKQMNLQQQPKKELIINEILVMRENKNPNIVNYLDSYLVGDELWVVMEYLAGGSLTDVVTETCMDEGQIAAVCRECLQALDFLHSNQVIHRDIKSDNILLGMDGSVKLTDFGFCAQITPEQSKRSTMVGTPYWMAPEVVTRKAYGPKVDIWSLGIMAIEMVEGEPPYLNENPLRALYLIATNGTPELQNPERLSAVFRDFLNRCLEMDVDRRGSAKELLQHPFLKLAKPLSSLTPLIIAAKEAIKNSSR
Summary of the method: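 Fluorescence-based development format: after a 60-min room-temperature kinase reaction and 60-min protease development, percent phosphorylation of Ser/Thr 20 peptide calculated via phosphopeptide controls. Buffer 50 mM HEPES pH 7.5, 10 mM MgCl2, 1 mM EGTA, 0.01% BRIJ-35; compounds at 1% DMSO, 10-point 3-fold dilution series.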

[3] = molecular target: PAK4 (Homo sapiens, UniProt O96013); experiment: as above
Sequence of PAK4 (O96013 whole entry): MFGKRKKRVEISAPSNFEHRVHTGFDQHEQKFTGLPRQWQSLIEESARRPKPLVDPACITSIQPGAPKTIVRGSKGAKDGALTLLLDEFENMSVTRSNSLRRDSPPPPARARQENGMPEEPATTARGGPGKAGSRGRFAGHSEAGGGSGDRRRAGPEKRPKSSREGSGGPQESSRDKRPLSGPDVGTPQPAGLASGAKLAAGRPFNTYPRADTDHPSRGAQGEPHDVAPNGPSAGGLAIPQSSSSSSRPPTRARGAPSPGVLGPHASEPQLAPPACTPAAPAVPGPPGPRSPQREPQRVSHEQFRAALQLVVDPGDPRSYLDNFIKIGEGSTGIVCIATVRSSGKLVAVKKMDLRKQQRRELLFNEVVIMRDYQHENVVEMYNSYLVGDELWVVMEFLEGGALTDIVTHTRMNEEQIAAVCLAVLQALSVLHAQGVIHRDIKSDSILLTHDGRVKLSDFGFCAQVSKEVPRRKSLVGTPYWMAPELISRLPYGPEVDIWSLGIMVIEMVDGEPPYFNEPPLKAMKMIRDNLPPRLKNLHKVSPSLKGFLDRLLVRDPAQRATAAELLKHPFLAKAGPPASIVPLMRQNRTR
Summary of the method: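 Ten-point, 3-fold compound series (1% DMSO) incubated 1 h at room temperature with PAK4 (0.1-0.75 ng) and 2 μM Ser/Thr 20 peptide, HEPES pH 7.5 buffer with MgCl2, EGTA, BRIJ-35. Development reagent cleaves non-phosphorylated peptide; fluorescence emission ratio gives % phosphorylation, fitted sigmoidally for IC50.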

[4] = molecular target: PAK2 (PAK65) (Homo sapiens, UniProt Q13177); experiment: as above
Sequence of PAK2 (PAK65) (Q13177 whole entry): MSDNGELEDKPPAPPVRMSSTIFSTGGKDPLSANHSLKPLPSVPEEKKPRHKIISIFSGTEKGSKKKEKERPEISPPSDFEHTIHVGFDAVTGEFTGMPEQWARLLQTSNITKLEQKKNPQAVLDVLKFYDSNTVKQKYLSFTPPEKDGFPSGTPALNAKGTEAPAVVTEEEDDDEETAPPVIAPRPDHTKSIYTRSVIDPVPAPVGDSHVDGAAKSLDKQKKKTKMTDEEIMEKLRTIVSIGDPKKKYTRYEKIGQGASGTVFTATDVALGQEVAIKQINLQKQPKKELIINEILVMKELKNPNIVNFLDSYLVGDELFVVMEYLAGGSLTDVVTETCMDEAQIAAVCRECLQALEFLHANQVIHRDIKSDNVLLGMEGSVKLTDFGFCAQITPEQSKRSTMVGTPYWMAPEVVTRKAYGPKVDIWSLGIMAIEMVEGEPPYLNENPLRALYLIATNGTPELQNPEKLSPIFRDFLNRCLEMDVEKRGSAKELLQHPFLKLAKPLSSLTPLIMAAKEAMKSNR
Summary of the method: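 Ten-point threefold compound dilutions (1% DMSO) were incubated with PAK2 (0.29-6 ng) and Ser/Thr 20 substrate (2 μM) for 60 min at room temperature in HEPES pH 7.5 buffer with MgCl2, EGTA and BRIJ-35.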

Sequence of PAK1 (Q13153 whole entry): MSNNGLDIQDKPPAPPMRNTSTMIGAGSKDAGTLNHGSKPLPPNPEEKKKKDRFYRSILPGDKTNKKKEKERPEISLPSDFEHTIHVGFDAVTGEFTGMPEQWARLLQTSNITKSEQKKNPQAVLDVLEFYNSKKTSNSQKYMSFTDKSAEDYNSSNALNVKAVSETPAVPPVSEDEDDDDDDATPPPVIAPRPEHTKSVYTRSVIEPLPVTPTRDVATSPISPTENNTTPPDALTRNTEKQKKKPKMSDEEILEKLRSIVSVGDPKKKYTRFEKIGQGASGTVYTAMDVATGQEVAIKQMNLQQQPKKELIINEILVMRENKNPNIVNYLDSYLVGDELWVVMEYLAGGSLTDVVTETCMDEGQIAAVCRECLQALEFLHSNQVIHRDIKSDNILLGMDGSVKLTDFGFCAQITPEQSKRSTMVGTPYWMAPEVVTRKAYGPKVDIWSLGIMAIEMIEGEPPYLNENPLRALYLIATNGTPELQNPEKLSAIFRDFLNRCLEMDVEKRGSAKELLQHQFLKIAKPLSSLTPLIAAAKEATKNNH

| IC50 [1] [nM] | IC50 [2] [nM] | IC50 [3] [nM] | IC50 [4] [nM] | SMILES |
| --- | --- | --- | --- | --- |
| < 50 | 50 to 500 | 500 to 5000 | < 50 | CCn1c(=O)c(-c2ccc(-c3ccc(C)nc3F)cc2Cl)cc2cnc(Nc3ccc(C4CCN(C)CC4)cc3)nc21 |
| < 50 | 50 to 500 | ≥ 5000 | < 50 | CCn1c(=O)c(-c2ccc(-c3ccc(C)nc3)cc2Cl)cc2cnc(Nc3ccc(C4CCN(C)CC4)c(F)c3)nc21 |
| < 50 | < 50 | 500 to 5000 | < 50 | CCn1c(=O)c(-c2ccc(-c3cccnc3F)cc2Cl)cc2cnc(Nc3ccc(C4CCN(C)CC4)c(F)c3)nc21 |
| < 50 | 50 to 500 | ≥ 5000 | 50 to 500 | CCn1c(=O)c(-c2ccc(-c3cccnc3C)cc2Cl)cc2cnc(Nc3ccc(C4CCN(C)CC4)c(F)c3)nc21 |
| < 50 | 50 to 500 | ≥ 5000 | 50 to 500 | CCN1CCC(c2ccc(Nc3ncc4cc(-c5ccc(-c6cccnc6C)cc5Cl)c(=O)n(CC)c4n3)cc2F)CC1 |
| < 50 | 50 to 500 | ≥ 5000 | 50 to 500 | CCn1c(=O)c(-c2ccc(-c3ccc(F)nc3C)cc2Cl)cc2cnc(Nc3ccc(C4CCN(C)CC4)cc3)nc21 |
| < 50 | < 50 | 500 to 5000 | < 50 | CCn1c(=O)c(-c2ccc(-c3noc(C)n3)cc2Cl)cc2cnc(Nc3ccc(C4CCN(C(C)C)CC4)cc3)nc21 |
| < 50 | 50 to 500 | ≥ 5000 | < 50 | CCn1c(=O)c(-c2ccc(-c3ccnc(C)c3)cc2Cl)cc2cnc(Nc3ccc(C4CCN(C)CC4)c(F)c3)nc21 |
| < 50 | 50 to 500 | ≥ 5000 | < 50 | Cc1ncccc1-c1ccc(-c2cc3cnc(Nc4ccc(C5CCN(C)CC5)cc4)nc3n(C)c2=O)c(Cl)c1 |
| < 50 | < 50 | 500 to 5000 | < 50 | CCn1c(=O)c(-c2ccc(-c3noc(C)n3)cc2Cl)cc2cnc(Nc3ccc(C4CCN(C)CC4)c(F)c3)nc21 |
| 50 to 500 | 50 to 500 | 500 to 5000 | 50 to 500 | CCn1c(=O)c(-c2ccc(-c3ccc(C)nc3F)cc2Cl)cc2cnc(Nc3ccc(C4CCN(C)CC4)c(F)c3)nc21 |
| 50 to 500 | 50 to 500 | ≥ 5000 | 50 to 500 | CCn1c(=O)c(-c2ccc(-c3ccc(F)nc3C)cc2Cl)cc2cnc(Nc3ccc(C4CCN(C)CC4)c(F)c3)nc21 |
| < 50 | < 50 | ≥ 5000 | < 50 | CCN1CCC(c2ccc(Nc3ncc4cc(-c5ccc(-c6noc(C)n6)cc5Cl)c(=O)n(C)c4n3)cc2)CC1 |
| < 50 | 50 to 500 | ≥ 5000 | < 50 | Cc1ncc(-c2ccc(-c3cc4cnc(Nc5ccc(C6CCN(C)CC6)cc5)nc4n(C)c3=O)c(Cl)c2)s1 |
| < 50 | 50 to 500 | 500 to 5000 | < 50 | CCn1c(=O)c(-c2ccc(-c3ccc(C)nc3)cc2Cl)cc2cnc(Nc3ccc(C4CCN5CCCC5C4)cc3)nc21 (centres unmarked) |
| < 50 | 50 to 500 | ≥ 5000 | 50 to 500 | CCN1CCC(c2ccc(Nc3ncc4cc(-c5ccc(-c6cccnc6C)cc5Cl)c(=O)n(C)c4n3)cc2)CC1 |
| < 50 | < 50 | ≥ 5000 | < 50 | CN1CCC(c2ccc(Nc3ncc4cc(-c5ccc(-c6cccnc6F)cc5Cl)c(=O)n(C)c4n3)cc2)CC1 |
| 50 to 500 | 50 to 500 | ≥ 5000 | 50 to 500 | CCn1c(=O)c(-c2ccc(-c3ccc(F)nc3C)cc2Cl)cc2cnc(Nc3ccc(C4CCNCC4)c(F)c3)nc21 |
| 50 to 500 | 50 to 500 | ≥ 5000 | 50 to 500 | CCn1c(=O)c(-c2ccc(-c3noc(C)n3)cc2)cc2cnc(Nc3ccc(C4CCN(C)CC4)cc3)nc21 |

Continued, molecule first:

| SMILES | IC50 [1] [nM] | IC50 [2] [nM] | IC50 [3] [nM] | IC50 [4] [nM] |
| --- | --- | --- | --- | --- |
| CCn1c(=O)c(-c2ccc(-c3ccoc3)cc2Cl)cc2cnc(Nc3ccc(N4CCN(C)CC4)cc3)nc21 | < 50 | < 50 | ≥ 5000 | < 50 |
| CCn1c(=O)c(-c2ccc(-c3ccco3)cc2Cl)cc2cnc(Nc3ccc(N4CCN(C)CC4)cc3)nc21 | < 50 | < 50 | ≥ 5000 | < 50 |
| CCn1c(=O)c(-c2ccc(-c3ccsc3)cc2Cl)cc2cnc(Nc3ccc(N4CCN(C)CC4)cc3)nc21 | < 50 | < 50 | ≥ 5000 | < 50 |
| CCn1c(=O)c(-c2ccc(-c3ccc(C)s3)cc2Cl)cc2cnc(Nc3ccc(N4CCN(C)CC4)cc3)nc21 | < 50 | 50 to 500 | ≥ 5000 | < 50 |
| CCn1c(=O)c(-c2ccc(-c3cnn(C)c3)cc2Cl)cc2cnc(Nc3ccc(N4CCN(C)CC4)cc3)nc21 | < 50 | 50 to 500 | ≥ 5000 | < 50 |
| CCn1c(=O)c(-c2ccc(-c3cccnc3F)cc2Cl)cc2cnc(Nc3ccc(C4CCNCC4)c(F)c3)nc21 | < 50 | < 50 | 500 to 5000 | < 50 |
| CCN1CCC(c2ccc(Nc3ncc4cc(-c5ccc(-c6ccc(C)nc6)cc5Cl)c(=O)n(CC)c4n3)cc2F)CC1 | < 50 | 50 to 500 | 500 to 5000 | < 50 |
| CCN1CCC(c2ccc(Nc3ncc4cc(-c5ccc(-c6cccnc6F)cc5Cl)c(=O)n(CC)c4n3)cc2F)CC1 | < 50 | < 50 | 500 to 5000 | < 50 |
| CCN1CCC(c2ccc(Nc3ncc4cc(-c5ccc(-c6noc(C)n6)cc5Cl)c(=O)n(CC)c4n3)cc2F)CC1 | < 50 | < 50 | ≥ 5000 | < 50 |
| CCN1CCC(c2ccc(Nc3ncc4cc(-c5ccc(-c6ccc(C)nc6F)cc5Cl)c(=O)n(CC)c4n3)cc2F)CC1 | 50 to 500 | 50 to 500 | ≥ 5000 | 50 to 500 |
| CCN1CCC(c2ccc(Nc3ncc4cc(-c5ccc(-c6ccnc(C)c6)cc5Cl)c(=O)n(CC)c4n3)cc2F)CC1 | < 50 | < 50 | 500 to 5000 | < 50 |
| CCn1c(=O)c(-c2ccc(-c3ccnc(C(=O)NC)c3)cc2Cl)cc2cnc(Nc3ccc(C4CCN5CCCC5C4)cc3)nc21 (centres unmarked) | 50 to 500 | 50 to 500 | ≥ 5000 | 50 to 500 |
| CCn1c(=O)c(-c2ccc(-c3cnc(C)s3)cc2Cl)cc2cnc(Nc3ccc(CCN(C)C)cc3)nc21 | < 50 | < 50 | 500 to 5000 | < 50 |
| Cc1ncccc1-c1ccc(-c2cc3cnc(Nc4ccc(CCN(C)C)cc4)nc3n(C)c2=O)c(Cl)c1 | < 50 | 50 to 500 | ≥ 5000 | 50 to 500 |
| Cc1nc(-c2ccc(-c3cc4cnc(Nc5ccc(CCN(C)C)cc5)nc4n(C)c3=O)c(Cl)c2)no1 | < 50 | < 50 | ≥ 5000 | < 50 |
| Cc1ncc(-c2ccc(-c3cc4cnc(Nc5ccc(CCN(C)C)cc5)nc4n(C)c3=O)c(Cl)c2)s1 | < 50 | < 50 | ≥ 5000 | < 50 |
| CCn1c(=O)c(-c2ccc(-c3ccnc(C)c3)cc2Cl)cc2cnc(Nc3ccc(C4CCN5CCCC5C4)cc3)nc21 (centres unmarked) | < 50 | 50 to 500 | ≥ 5000 | 50 to 500 |
| CCn1c(=O)c(-c2ccc(-c3cnc(C)s3)cc2Cl)cc2cnc(Nc3ccc(C4CCN5CCCC5C4)cc3)nc21 (centres unmarked) | < 50 | < 50 | 500 to 5000 | < 50 |
| CNC(=O)c1cc(-c2ccc(-c3cc4cnc(Nc5ccc(C6CCN(C)CC6)cc5)nc4n(C)c3=O)c(Cl)c2)ccn1 | 50 to 500 | 500 to 5000 | ≥ 5000 | 50 to 500 |
| CNC(=O)c1cc(-c2ccc(-c3cc4cnc(Nc5ccc(CCN(C)C)cc5)nc4n(C)c3=O)c(Cl)c2)ccn1 | 50 to 500 | 500 to 5000 | ≥ 5000 | 50 to 500 |
| CNC(=O)c1cc(-c2ccc(-c3cc4cnc(Nc5ccc(C6CCNCC6)cc5)nc4n(C)c3=O)c(Cl)c2)ccn1 | 50 to 500 | 50 to 500 | 500 to 5000 | 50 to 500 |
| CN(C)CCc1ccc(Nc2ncc3cc(-c4ccc(-c5cccnc5F)cc4Cl)c(=O)n(C)c3n2)cc1 | < 50 | < 50 | 500 to 5000 | < 50 |
| CCn1c(=O)c(-c2ccc(-c3noc(C)n3)cc2Cl)cc2cnc(Nc3ccc(CCN4CCCC4)cc3)nc21 | < 50 | < 50 | 500 to 5000 | < 50 |
| CCn1c(=O)c(-c2ccc(-c3cccnc3C)cc2Cl)cc2cnc(Nc3ccc(CCN4CCCC4)cc3)nc21 | < 50 | 50 to 500 | ≥ 5000 | < 50 |
| CCn1c(=O)c(-c2ccc(-c3cccnc3F)cc2Cl)cc2cnc(Nc3ccc(CCN4CCOCC4)cc3)nc21 | 50 to 500 | 50 to 500 | ≥ 5000 | 50 to 500 |
